# Measurements: patent US20080114079A1, “TRPM2-specfic inhibitors” (priority 2006, published 2008)
# “Also recorded” adds a separate entry of the source.
# Assays:
# [1] = system: mouse bone marrow neutrophils; experiment: Ca2+ mobilization assay in chemoattractant-stimulated bone marrow neutrophils (flow cytometry, Fluo-3/Fura-red); type: cell-based; conditions: 100 μM, 15 min
# Experimental: (§1) Ca^2+ mobilization assays. Bone marrow neutrophils (1×10^7/ml) and DCs (1×10^6/ml) were loaded with a mixture of Fluo-3 AM and Fura-Red AM as previously described (Partida-Sanchez, S. et al., 2001 Nature Medicine 7:1209-1216; Partida-Sanchez S. et al., 2004 Immunity 20:279-291). […] The accumulation of intracellular free Ca^2+ was assessed by flow cytometry by measuring the fluorescence emission of Fluo-3 in the FL-1 channel and Fura-Red in the FL-3 channel over time. Data were analyzed using FlowJo 4.0 software (Tree Star). Relative intracellular free Ca^2+ levels are expressed as the ratio between Fluo-3 and Fura-Red mean fluorescence intensity.
# mouse DCs = experiment: Ca2+ mobilization assay in chemokine-stimulated DCs; type: cell-based; conditions: 100 μM, 15 min, CXCL12 50 ng/ml
# Experimental: as §1
# [2] = system: mouse bone marrow neutrophils; experiment: Transwell chemotaxis assay, mouse bone marrow neutrophils; type: cell-based
# Experimental: (§2) Chemotaxis assays. Chemotaxis assays were performed as previously described (Partida-Sanchez, S. et al., 2001 Nature Medicine 7:1209-1216; Partida-Sanchez S. et al., 2004 Immunity 20:279-291). […] Treated cells (1×10^6 neutrophils or 1×10^5 DCs) were added to the upper chamber of the transwell (3-μm for neutrophils or 5-μm for DCs) (Costar). After incubating the chambers for 45 min (neutrophils) or 90 min (DCs) at 37° C., the transmigrated cells were collected from the lower chamber, fixed, and counted on a flow cytometer. The results are expressed as the mean ±SD of the chemotaxis index (CI) for triplicate wells. The CI represents the fold-change in the number of untreated or inhibitor-pretreated cells that migrated in response to the chemoattractant divided by the basal migration of untreated or antagonist pretreated cells migrating in response to control medium.
# [3] = system: bone marrow-derived immature or TNFα-matured DCs; experiment: Transwell chemotaxis assay, bone marrow-derived DCs; type: cell-based, mouse; conditions: 100 μM, 15 min pretreatment
# Experimental: as §2
# human neutrophils = experiment: Transwell chemotaxis assay, human peripheral blood neutrophils; type: cell-based; conditions: 100 μM, 15 min, A5 peptide 1 μM
# Experimental: as §2
# [4] = HPLC analysis of catabolites after incubation with bone marrow neutrophils; type: in vitro ADME, mouse
# Experimental: HPLC analysis of catabolites produced by CD38-expressing cells. […] The supernatants were collected after centrifugation, concentrated and flash frozen. Aliquots were analyzed by reversed-phase HPLC (Kontron Instruments) using a Multohyp BDS C18 column (250 mm×4.6 mm, particle size 5 μm, Chromatographie Service). Absorbance was measured at 270 nm using a UV detector (Kontron 432) and data were processed by the MT2 data acquisition system from Kontron Instruments. Peaks were identified by comparison to known standards and the area under each curve was quantified to determine relative amounts of each metabolite.
# [5] = system: mouse bone marrow neutrophils; experiment: Oxidant (H2O2)-induced Ca2+ influx in bone marrow neutrophils; type: cell-based; conditions: 100 μM, 15 min, H2O2 100 μM
# Experimental: as §1
# TRPM2 channels = target: T1, TRPM2 channels (Homo sapiens, UniProt O94759); experiment: Whole-cell patch-clamp of ADPR-gated cation entry in TRPM2-expressing Jurkat T cells; type: cell-based; conditions: 300 μM ADPR in the pipette, -60 mV
# T1 construct: All experiments were performed at room temperature with Jurkat T lymphocytes attached to high molecular weight poly-L-lysin; endogenous in cells; host or cells: Jurkat T lymphocytes
# T1 sequence (O94759 whole entry): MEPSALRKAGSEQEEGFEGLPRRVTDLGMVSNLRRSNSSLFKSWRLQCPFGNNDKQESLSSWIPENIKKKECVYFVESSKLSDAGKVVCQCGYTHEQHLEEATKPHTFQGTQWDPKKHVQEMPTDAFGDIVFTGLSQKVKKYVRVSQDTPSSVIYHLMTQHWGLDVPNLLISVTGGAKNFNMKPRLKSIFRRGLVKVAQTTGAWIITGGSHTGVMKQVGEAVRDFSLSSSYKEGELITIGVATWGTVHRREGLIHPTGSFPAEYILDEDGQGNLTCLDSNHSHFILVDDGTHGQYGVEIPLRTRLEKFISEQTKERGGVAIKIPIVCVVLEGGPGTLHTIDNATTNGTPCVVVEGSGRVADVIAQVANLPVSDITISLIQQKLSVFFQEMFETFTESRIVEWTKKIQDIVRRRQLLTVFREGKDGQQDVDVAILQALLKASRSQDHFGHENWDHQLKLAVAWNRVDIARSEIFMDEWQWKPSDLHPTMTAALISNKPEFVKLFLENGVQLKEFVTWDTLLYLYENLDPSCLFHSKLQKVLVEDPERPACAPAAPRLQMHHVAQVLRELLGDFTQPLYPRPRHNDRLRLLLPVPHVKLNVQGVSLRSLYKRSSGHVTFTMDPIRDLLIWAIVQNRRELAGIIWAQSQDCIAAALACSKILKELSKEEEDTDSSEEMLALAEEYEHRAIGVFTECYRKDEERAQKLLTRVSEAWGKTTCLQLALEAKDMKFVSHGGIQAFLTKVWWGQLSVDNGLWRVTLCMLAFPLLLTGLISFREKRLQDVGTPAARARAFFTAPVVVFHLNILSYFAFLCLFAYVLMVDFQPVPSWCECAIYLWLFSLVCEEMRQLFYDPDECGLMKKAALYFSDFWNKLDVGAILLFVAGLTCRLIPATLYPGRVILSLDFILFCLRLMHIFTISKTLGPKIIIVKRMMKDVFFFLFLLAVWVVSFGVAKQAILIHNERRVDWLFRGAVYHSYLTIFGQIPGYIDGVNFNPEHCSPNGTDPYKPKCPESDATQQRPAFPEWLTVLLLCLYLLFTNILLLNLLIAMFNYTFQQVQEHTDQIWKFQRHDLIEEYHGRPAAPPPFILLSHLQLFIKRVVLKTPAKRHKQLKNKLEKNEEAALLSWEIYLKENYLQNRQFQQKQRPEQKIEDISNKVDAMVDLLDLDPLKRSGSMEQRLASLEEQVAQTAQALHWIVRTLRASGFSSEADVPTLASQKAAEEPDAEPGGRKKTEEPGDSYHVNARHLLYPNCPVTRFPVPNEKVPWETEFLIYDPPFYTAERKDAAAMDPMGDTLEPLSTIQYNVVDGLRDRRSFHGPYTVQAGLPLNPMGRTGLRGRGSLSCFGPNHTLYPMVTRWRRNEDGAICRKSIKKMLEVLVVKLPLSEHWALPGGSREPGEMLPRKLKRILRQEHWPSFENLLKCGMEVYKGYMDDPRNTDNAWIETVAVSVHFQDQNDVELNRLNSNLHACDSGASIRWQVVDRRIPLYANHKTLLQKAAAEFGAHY
# Experimental: Electrophysiology. […] An EPC9 patch-clamp amplifier was used in conjunction with the PULSE stimulation and data acquisition software (HEKA Elektronik). The patch electrodes were made from 1.5 mm diameter borosilicate glass capillaries and filled with intracellular solution. Data were low-pass filtered at 1 kHz and compensated for both fast and slow capacity transients. Series resistance was compensated by 50-90%. All experiments were performed at room temperature with Jurkat T lymphocytes attached to high molecular weight poly-L-lysin. The pipette solution contained 145 mM K-glutamate, 8 mM NaCl, 1 mM MgCl2 and 10 mM EGTA, adjusted to pH 7.2 with KOH and to a free Ca^2+ concentration of 100 nM with CaCl2. […] The external solution contained 145 mM NaCl, 2 mM MgCl2, 1 mM CaCl2, 2.8 mM KCl, 10 mM HEPES and 10 mM glucose, adjusted to pH 7.2 with NaOH. The cells were held at −60 mV and I-V relations were obtained every 20 sec using 250 ms voltage ramps from −100 to +100 mV.
# [6] = fMLP 1 μM, Ca2+-containing media
# [7] = 100 μM, 15 min, fMLP 1 μM, 45 min
compound,measurement,setting,value
8Br-cADPR,effect on intracellular Ca2+ release after IL-8,"[1]; IL-8 100 nM, Ca2+ free buffer (EGTA 2 mM)",had no effect
same,effect on IL-8 induced Ca2+ response,"[1]; IL-8 100 nM, Ca2+-containing media",neither compound had any effect
same,decrease of intracellular Ca2+ release in fMLP-stimulated neutrophils,"[1]; fMLP 1 μM, Ca2+ free buffer (EGTA 2 mM)",approximately 25%
same,effect on extracellular Ca2+ influx in fMLP-stimulated WT neutrophils,[1]; [6],significantly decreased
same,effect on Ca2+ response of CXCL12-stimulated immature DCs,mouse DCs,blocked
same,IC50,"[2]; 0-100 μM, 15 min, fMLP 1 μM, read-out: IC50 on chemotaxis of fMLP-stimulated mouse neutrophils",1000 to 5000 nM
same,effect on chemotactic response of WT neutrophils to fMLP,[2]; [7],effectively blocked chemotaxis; also recorded: significantly inhibited
same,effect on chemotactic response of neutrophils to IL-8,"[2]; 100 μM, IL-8 100 nM, 45 min",neither 8Br-ADPR nor 8Br-cADPR blocked
same,effect on chemotactic response of CD38KO (Cd38-/-) neutrophils to fMLP,"[2]; 15 min, fMLP 1 μM",no further inhibition
same,chemotactic response of TNFα-matured DCs to CCL21,[3],neither the immature nor mature DCs migrated efficiently
same,chemotactic response of immature DCs to CXCL12,[3],neither the immature nor mature DCs migrated efficiently
same,effect on migration of human neutrophils to FPRL1 ligand A5 peptide,human neutrophils,effectively inhibited
same,catabolism on incubation with CD38KO (Cd38-/-) neutrophils,[4],remained largely unchanged
same,stability in the absence of any cells,[4],remained intact
Nc1ncnc2c1nc(Br)n2[C@@H]1O[C@H](COP(=O)(O)O)[C@@H](O)[C@H]1O [8Br-AMP],effect on extracellular Ca2+ influx in fMLP-stimulated WT neutrophils,[1]; [6],had absolutely no effect; also recorded: does not block
NC(=O)c1ccc[n+]([C@@H]2O[C@H](COP(=O)([O-])OP(=O)(O)OC[C@H]3O[C@@H](n4c(Br)nc5c(N)ncnc54)[C@H](O)[C@@H]3O)[C@@H](O)[C@H]2O)c1 [8Br-NAD^+],effect on extracellular Ca2+ influx in fMLP-stimulated WT neutrophils,[1]; [6],significantly reduced
same,effect on Ca2+ influx in fMLP-stimulated Parp1-/- neutrophils,"[1]; fMLP 1 μM, Parp1-/-",significantly reduced
same,effect on H2O2-induced Ca2+ influx in WT neutrophils,[5],had no effect
same,effect on chemotactic response of WT neutrophils to fMLP,[2]; [7],significantly inhibited
same,effect on chemotactic response of Parp1-/- neutrophils to fMLP,"[2]; 100 μM, 15 min, fMLP 1 μM, Parp1-/-",inhibited
same,effect on chemotactic response of CD38KO (Cd38-/-) neutrophils to fMLP,"[2]; 15 min, fMLP 1 μM",no further inhibition
same,stability in the absence of any cells,[4],remained intact
adenosine diphosphate ribose [ADPR],membrane current on infusion into Jurkat cells,TRPM2 channels,caused a slowly developing inward current
